Experimental data taken from US10329294B2, “Pyrazolopyrimidine inhibitors of IRAK4 activity” (MERCK SHARP & DOHME CORP., priority 2015, dated 2019).
Structures can show the parent of a compound that is named as a salt.

Target: IRAK4 (Homo sapiens (Human), UniProt Q9NWZ3)
Test: IRAK4 Kinase Assay
Format: biochemical
Settings: IMAP fluorescence polarization, 0.5 nM GST tagged IRAK4, 100 μM ATP, 30 minutes at 25° C.; read-out: IRAK4 IC50
Method: The kinase activity of IRAK4 is determined by its ability to catalyze the phosphorylation of a fluorescent polypeptide substrate. The extent of phosphorylation is measured using the IMAP technology (Molecular Devices) where the phosphorylated fluorescent substrate binds to the large M(III)-based nanoparticles which reduces the rotational speed of the substrate and thus increases its fluorescent polarization (FP).
20 μL reaction mixture contains 10 mM TriHCl, pH 7.2, 0.5 nM GST tagged IRAK4 (SignalChem), 100 nM fluorescent peptide substrate (RP7030, Molecular Devices), 100 μM ATP, 1 mM DDT, 1 mM MgCl2, and 0.01% Tween 20. The reaction is initiated by the addition of ATP. After incubation for 30 minutes at 25° C., 60 μL of Progressive IMAP Reagent (Molecular Devices) is added to stop the reaction. Change in RP7030's FP is determined by a FP reader (Analyst HT, LJL BioSystems).

Sequence of IRAK4 (Q9NWZ3 whole entry): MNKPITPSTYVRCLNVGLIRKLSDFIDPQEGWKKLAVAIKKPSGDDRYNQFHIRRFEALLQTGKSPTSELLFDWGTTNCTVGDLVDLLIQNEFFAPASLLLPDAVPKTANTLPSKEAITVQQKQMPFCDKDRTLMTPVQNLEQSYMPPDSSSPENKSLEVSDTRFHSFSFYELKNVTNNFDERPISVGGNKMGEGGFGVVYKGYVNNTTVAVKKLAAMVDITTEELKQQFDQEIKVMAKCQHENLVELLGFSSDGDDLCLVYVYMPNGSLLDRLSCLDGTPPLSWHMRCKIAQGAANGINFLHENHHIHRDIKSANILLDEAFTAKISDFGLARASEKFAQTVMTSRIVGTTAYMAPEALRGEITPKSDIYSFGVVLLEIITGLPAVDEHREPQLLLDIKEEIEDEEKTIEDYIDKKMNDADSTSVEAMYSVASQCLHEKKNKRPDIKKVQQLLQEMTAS

IC50	Compound
0.019 µM	Cn1cc(NC(=O)c2cnn3ccc(N4C[C@H]5CC[C@@H]4CN5)nc23)c(C(F)(F)F)n1 (single isomer, unassigned) [Example 77, 5-[1S,4S)- or (1R,4R)-2,5-diazabicyclo[2.2.2]oct-2-yl]-N-[1-methyl-3-(trifluoromethyl)-1H-pyrazol-4-yl]pyrazolo[1,5-a]pyrimidine-3-carboxamide trifluoroacetate]
0.044 µM	Cn1cc(NC(=O)c2cnn3ccc(N4C[C@@H]5CC[C@H]4CN5)nc23)c(C(F)(F)F)n1 (single isomer, unassigned) [Example 78, 5-[(1S,4S)- or (1R,4R)-2,5-diazabicyclo[2.2.2]oct-2-yl]-N-[1-methyl-3-(trifluoromethyl)-1H-pyrazol-4-yl]pyrazolo[1,5-a]pyrimidine-3-carboxamide trifluoroacetate]
0.128 µM	Cn1cc(NC(=O)c2cnn3ccc(N4C[C@@H]5CC[C@H]4CN5)nc23)c(Cl)n1 (single isomer, unassigned) [Example 151, N-(3-chloro-1-methyl-1H-pyrazol-4-yl)-5-[(1S,4S)- or (1R,4R)-(2,5-diazabicyclo[2.2.2]oct-2-yl]pyrazolo[1,5-a]pyrimidine-3-carboxamide trifluoroacetate]
0.028 µM	Cn1cc(NC(=O)c2cnn3ccc(N4C[C@H]5CC[C@@H]4CN5)nc23)c(Cl)n1 (single isomer, unassigned) [Example 152, N-(3-chloro-1-methyl-1H-pyrazol-4-yl)-5-[(1S,4S)- or (1R,4R)-(2,5-diazabicyclo[2.2.2]oct-2-yl]pyrazolo[1,5-a]pyrimidine-3-carboxamide trifluoroacetate]
0.06 µM	Cn1cc(NC(=O)c2cnn3ccc(N4C[C@H]5CC[C@@H]4CN5)nc23)c(C#N)n1 (single isomer, unassigned) [Example 157, N-(3-cyano-1-methyl-1H-pyrazol-4-yl)-5-[(1S,4S)- or (1R,4R)-2,5-diazabicyclo[2.2.2]oct-2-yl]pyrazolo[1,5-a]pyrimidine-3-carboxamide trifluoroacetate]
0.003 µM	Cn1cc(NC(=O)c2cnn3ccc(N4C[C@@H]5CC[C@H]4CN5)nc23)c(C(F)F)n1 (single isomer, unassigned) [Example 158, 5-[(1S,4S)- or (1R,4R)-2,5-diazabicyclo[2.2.2]oct-2-yl]-N-[3-(difluoromethyl)-1-methyl-1H-pyrazol-4-yl]pyrazolo[1,5-a]pyrimidine-3-carboxamide trifluoroacetate]
0.002 µM	Cn1cc(NC(=O)c2cnn3ccc(N4C[C@H]5CC[C@@H]4CN5)nc23)c(C(F)F)n1 (single isomer, unassigned) [Example 161, 5-[(1S,4S)- or (1R,4R)-2,5-diazabicyclo[2.2.2]oct-2-yl]-N-[3-(difluoromethyl)-1-methyl-1H-pyrazol-4-yl]pyrazolo[1,5-a]pyrimidine-3-carboxamide trifluoroacetate]
0.05 µM	Cn1cc(NC(=O)c2cnn3ccc(N4C[C@@H]5CC[C@H]4CN5)nc23)c(Br)n1 (single isomer, unassigned) [Example 164, N-(3-bromo-1-methyl-1H-pyrazol-4-yl)-5-[(1S,4S)- or (1R,4R)-2,5-diazabicyclo[2.2.2]oct-2-yl]pyrazolo[1,5-a]pyrimidine-3-carboxamide trifluoroacetate]
0.019 µM	Cn1cc(NC(=O)c2cnn3ccc(N4C[C@H]5CC[C@@H]4CN5)nc23)c(Br)n1 (single isomer, unassigned) [Example 165, N-(3-bromo-1-methyl-1H-pyrazol-4-yl)-5-[(1S,4S)- or (1R,4R)-2,5-diazabicyclo[2.2.2]oct-2-yl]pyrazolo[1,5-a]pyrimidine-3-carboxamide trifluoroacetate]

More lines, now with the values behind:

Compound	IC50
Cn1cc(NC(=O)c2cnn3ccc(N[C@H]4CCCCC[C@H]4N)nc23)c(C(F)(F)F)n1 (relative stereo) [Example 33, 5-{[cis-2-aminocycloheptyl]amino}-N-[1-methyl-3-(trifluoromethyl)-1H-pyrazol-4-yl]pyrazolo[1,5-a]pyrimidine-3-carboxamide]	0.002 µM
C[C@@H]1CN(c2ccn3ncc(C(=O)Nc4cn(C)nc4C(F)(F)F)c3n2)[C@H](C)CN1 (relative stereo) [Example 75, 5-[cis-2,5-dimethylpiperazin-1-yl]-N-[1-methyl-3-(trifluoromethyl)-1H-pyrazol-4-yl]pyrazolo[1,5-a]pyrimidine-3-carboxamide trifluoroacetate]	0.055 µM
C[C@@H]1CN[C@@H](C)CN1c1ccn2ncc(C(=O)Nc3cn(C)nc3C(F)(F)F)c2n1 (relative stereo) [Example 93, 5-[trans-2,5-dimethylpiperazin-1-yl]-N-[1-methyl-3-(trifluoromethyl)-1H-pyrazol-4-yl]pyrazolo[1,5-a]pyrimidine-3-carboxamide trifluoroacetate]	0.03 µM
Cn1cc(NC(=O)c2cnn3ccc(N[C@@H]4CCCCC[C@@H]4N)nc23)c(C(F)(F)F)n1 (single isomer, unassigned) [Example 54, 5-{[(1R,2S)- or (1S,2R)-2-aminocycloheptyl]amino}-N-[1-methyl-3-(trifluoromethyl)-1H-pyrazol-4-yl]pyrazolo[1,5-a]pyrimidine-3-carboxamide]	0.063 µM
Cn1cc(NC(=O)c2cnn3ccc(N[C@H]4CCCCC[C@H]4N)nc23)c(C(F)(F)F)n1 (single isomer, unassigned) [Example 55, 5-{[(1R,2S)- or (1S,2R)-2-aminocycloheptyl]amino}-N-[1-methyl-3-(trifluoromethyl)-1H-pyrazol-4-yl]pyrazolo[1,5-a]pyrimidine-3-carboxamide]	0.008 µM
Cn1cc(NC(=O)c2cnn3ccc(N4C[C@@H]5CNC[C@H]4C5)nc23)c(C(F)(F)F)n1 (single isomer, unassigned) [Example 83, 5-[(1S,5R)- or (1R,5S)-3,6-diazabicyclo[3.2.1]oct-6-yl]-N-[1-methyl-3-(trifluoromethyl)-1H-pyrazol-4-yl]pyrazolo[1,5-a]pyrimidine-3-carboxamide]	0.033 µM
Cn1cc(NC(=O)c2cnn3ccc(N4C[C@H]5CNC[C@@H]4C5)nc23)c(C(F)(F)F)n1 (single isomer, unassigned) [Example 84, 5-[(1S,5R)- or (1R,5S)-3,6-diazabicyclo[3.2.1]oct-6-yl]-N-[1-methyl-3-(trifluoromethyl)-1H-pyrazol-4-yl]pyrazolo[1,5-a]pyrimidine-3-carboxamide]	0.158 µM
Cn1cc(NC(=O)c2cnn3ccc(N4CC[C@H]5CC[C@@H](C4)N5)nc23)c(C(F)(F)F)n1 (single isomer, unassigned) [Example 89, 5-[(1R,6S)- or (1S,6R)-3,9-diazabicyclo[4.2.1]non-3-yl]-N-[1-methyl-3-(trifluoromethyl)-1H-pyrazol-4-yl]pyrazolo[1,5-a]pyrimidine-3-carboxamide trifluoroacetate]	0.27 µM
Cn1cc(NC(=O)c2cnn3ccc(N4CC[C@@H]5CC[C@H](C4)N5)nc23)c(C(F)(F)F)n1 (single isomer, unassigned) [Example 94, 5-[(1R,6S)- or (1S,6R)-3,9-diazabicyclo[4.2.1]non-3-yl]-N-[1-methyl-3-(trifluoromethyl)-1H-pyrazol-4-yl]pyrazolo[1,5-a]pyrimidine-3-carboxamide trifluoroacetate]	0.07 µM
O=C(Nc1cscc1C(F)F)c1cnn2ccc(N3C[C@@H]4CC[C@H]3CN4)nc12 (single isomer, unassigned) [Example 154, 5-[(1S,4S)- or (1R,4R)-2,5-diazabicyclo[2.2.2]oct-2-yl]-N-[4-(difluoromethyl)thiophen-3-yl]pyrazolo[1,5-a]pyrimidine-3-carboxamide trifluoroacetate]	0.086 µM
O=C(Nc1cscc1C(F)F)c1cnn2ccc(N3C[C@H]4CC[C@@H]3CN4)nc12 (single isomer, unassigned) [Example 155, 5-[(1S,4S)- or (1R,4R)-2,5-diazabicyclo[2.2.2]oct-2-yl]-N-[4-(difluoromethyl)thiophen-3-yl]pyrazolo[1,5-a]pyrimidine-3-carboxamide trifluoroacetate]	0.032 µM
Cn1cc(NC(=O)c2cnn3ccc(N4C[C@@H]5CC[C@H]4CN5)nc23)c(C#N)n1 (single isomer, unassigned) [Example 156, N-(3-cyano-1-methyl-1H-pyrazol-4-yl)-5-[(1S,4S)- or (1R,4R)-2,5-diazabicyclo[2.2.2]oct-2-yl]pyrazolo[1,5-a]pyrimidine-3-carboxamide trifluoroacetate]	0.041 µM
Cn1cc(NC(=O)c2cnn3ccc(N[C@H]4CCCCNC4)nc23)c(C(F)(F)F)n1 (single isomer, unassigned) [Example 159, 5-[(3S)- or (3R)-azepan-3-ylamino]-N-[1-methyl-3-(trifluoromethyl)-1H-pyrazol-4-yl]pyrazolo[1,5-a]pyrimidine-3-carboxamide trifluoroacetate]	0.018 µM
Cn1cc(NC(=O)c2cnn3ccc(N[C@@H]4CCCCNC4)nc23)c(C(F)(F)F)n1 (single isomer, unassigned) [Example 160, 5-[(3S)- or (3R)-azepan-3-ylamino]-N-[1-methyl-3-(trifluoromethyl)-1H-pyrazol-4-yl]pyrazolo[1,5-a]pyrimidine-3-carboxamide trifluoroacetate]	0.0005 µM
Cn1cc(NC(=O)c2cnn3ccc(N[C@@H]4CCCCNC4)nc23)c(C(F)F)n1 (single isomer, unassigned) [Example 162, 5-[(3S)- or (3R)-azepan-3-ylamino]-N-[3-(difluoromethyl)-1-methyl-1H-pyrazol-4-yl]pyrazolo[1,5-a]pyrimidine-3-carboxamide trifluoroacetate]	0.0002 µM
Cn1cc(NC(=O)c2cnn3ccc(N[C@H]4CCCCNC4)nc23)c(C(F)F)n1 (single isomer, unassigned) [Example 163, 5-[(3S)- or (3R)-azepan-3-ylamino]-N-[3-(difluoromethyl)-1-methyl-1H-pyrazol-4-yl]pyrazolo[1,5-a]pyrimidine-3-carboxamide trifluoroacetate]	0.007 µM
